Test results reported in PMC6886798, “Expression of myeloid Src-family kinases is associated with poor prognosis in AML and influences Flt3-ITD kinase inhibitor acquired resistance” (PLoS ONE, 2019).

How the values were obtained:
Assay in all cases: KINOMEscan
Format in all cases: binding
Settings in all cases: 1.0 µM
SBK1 = target: T1, SBK1 (Homo sapiens, UniProt Q52WX2)
T1 construct: purchased Eurofins/DiscoverX KINOMEscan scanMAX
Description: (§1) Kinase retention to the immobilized ligand is then measured using quantitative real-time PCR for each kinase-specific DNA barcode.

EPHA8 = target: T2, EPHA8 (Homo sapiens, UniProt P29322)
T2 construct: purchased Eurofins/DiscoverX KINOMEscan scanMAX
Description: as §1

WNK2 = target: T3, WNK2 (Homo sapiens, UniProt Q9Y3S1)
T3 construct: DNA tag (qPCR barcode); purchased Eurofins/DiscoverX KINOMEscan scanMAX
Description: as §1

CDK4-cyclinD3 = target: T4, CDK4-cyclinD3 (Homo sapiens, UniProt P11802)
T4 construct: purchased Eurofins/DiscoverX KINOMEscan scanMAX
Description: as §1

MAPKAPK5 = target: T5, MAPKAPK5 (Homo sapiens, UniProt Q8IW41)
T5 construct: purchased Eurofins/DiscoverX KINOMEscan scanMAX
Description: as §1

MLK1 = target: T6, MLK1 (Homo sapiens, UniProt P80192)
T6 construct: purchased Eurofins/DiscoverX KINOMEscan scanMAX
Description: as §1

TBK1 = target: T7, TBK1 (Homo sapiens, UniProt Q9UHD2)
T7 construct: purchased Eurofins/DiscoverX KINOMEscan scanMAX
Description: as §1

PIK3CD = target: T8, PIK3CD (Homo sapiens, UniProt O00329)
T8 construct: purchased Eurofins/DiscoverX KINOMEscan scanMAX
Description: as §1

IRAK3 = target: T9, IRAK3 (Homo sapiens, UniProt Q9Y616)
T9 construct: purchased Eurofins/DiscoverX KINOMEscan scanMAX
T9 sequence (Q9Y616 whole entry): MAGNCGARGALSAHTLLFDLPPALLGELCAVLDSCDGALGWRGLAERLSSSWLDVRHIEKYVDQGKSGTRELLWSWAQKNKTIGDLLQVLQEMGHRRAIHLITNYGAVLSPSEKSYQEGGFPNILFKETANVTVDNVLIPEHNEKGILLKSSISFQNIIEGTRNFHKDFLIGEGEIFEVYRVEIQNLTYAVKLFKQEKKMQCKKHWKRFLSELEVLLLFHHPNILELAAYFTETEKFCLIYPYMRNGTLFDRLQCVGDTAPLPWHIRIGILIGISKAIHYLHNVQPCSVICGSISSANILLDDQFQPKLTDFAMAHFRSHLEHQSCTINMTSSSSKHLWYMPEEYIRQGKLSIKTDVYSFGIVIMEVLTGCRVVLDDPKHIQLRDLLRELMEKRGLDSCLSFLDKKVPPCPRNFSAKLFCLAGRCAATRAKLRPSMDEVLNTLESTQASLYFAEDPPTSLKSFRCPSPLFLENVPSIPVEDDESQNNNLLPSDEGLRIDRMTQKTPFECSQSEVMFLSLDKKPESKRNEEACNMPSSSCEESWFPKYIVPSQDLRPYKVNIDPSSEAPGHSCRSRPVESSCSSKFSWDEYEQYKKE
Description: as §1

ACVR2A = target: T10, ACVR2A (Homo sapiens, UniProt P27037)
T10 construct: purchased Eurofins/DiscoverX KINOMEscan scanMAX
Description: as §1

[1] = target: T11, ABL1(E255K)-phosphorylated (Homo sapiens, UniProt P00519, E255K)
T11 construct: purchased Eurofins/DiscoverX KINOMEscan scanMAX
Description: as §1

[2] = target: T12, TYK2(JH2domain-pseudokinase) (Homo sapiens, UniProt P29597)
T12 construct: TYK2(JH2domain-pseudokinase); DNA tag (qPCR barcode); purchased Eurofins/DiscoverX KINOMEscan scanMAX
T12 sequence (P29597 589-875 limits assumed): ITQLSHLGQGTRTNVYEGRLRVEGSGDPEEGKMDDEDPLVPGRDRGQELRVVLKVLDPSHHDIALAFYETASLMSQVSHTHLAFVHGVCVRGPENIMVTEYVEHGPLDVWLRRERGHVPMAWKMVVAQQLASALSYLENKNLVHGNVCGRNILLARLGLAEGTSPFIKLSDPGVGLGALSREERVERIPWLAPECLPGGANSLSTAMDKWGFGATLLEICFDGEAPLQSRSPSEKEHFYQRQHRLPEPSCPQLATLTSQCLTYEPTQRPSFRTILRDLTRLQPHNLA
Description: as §1

PHKG2 = target: T13, PHKG2 (Homo sapiens, UniProt P15735)
T13 construct: purchased Eurofins/DiscoverX KINOMEscan scanMAX
Description: as §1

ARK5 = target: T14, ARK5 (Homo sapiens, UniProt O60285)
T14 construct: purchased Eurofins/DiscoverX KINOMEscan scanMAX
Description: as §1

BMPR2 = target: T15, BMPR2 (Homo sapiens, UniProt Q13873)
T15 construct: purchased Eurofins/DiscoverX KINOMEscan scanMAX
Description: as §1

DYRK1A = target: T16, DYRK1A (Homo sapiens, UniProt Q13627)
T16 construct: purchased Eurofins/DiscoverX KINOMEscan scanMAX
Description: as §1

CAMK2G = target: T17, CAMK2G (Homo sapiens, UniProt Q13555)
T17 construct: purchased Eurofins/DiscoverX KINOMEscan scanMAX
Description: as §1

IGF1R = target: T18, IGF1R (Homo sapiens, UniProt P08069)
T18 construct: purchased Eurofins/DiscoverX KINOMEscan scanMAX
T18 sequence (P08069 31-1367): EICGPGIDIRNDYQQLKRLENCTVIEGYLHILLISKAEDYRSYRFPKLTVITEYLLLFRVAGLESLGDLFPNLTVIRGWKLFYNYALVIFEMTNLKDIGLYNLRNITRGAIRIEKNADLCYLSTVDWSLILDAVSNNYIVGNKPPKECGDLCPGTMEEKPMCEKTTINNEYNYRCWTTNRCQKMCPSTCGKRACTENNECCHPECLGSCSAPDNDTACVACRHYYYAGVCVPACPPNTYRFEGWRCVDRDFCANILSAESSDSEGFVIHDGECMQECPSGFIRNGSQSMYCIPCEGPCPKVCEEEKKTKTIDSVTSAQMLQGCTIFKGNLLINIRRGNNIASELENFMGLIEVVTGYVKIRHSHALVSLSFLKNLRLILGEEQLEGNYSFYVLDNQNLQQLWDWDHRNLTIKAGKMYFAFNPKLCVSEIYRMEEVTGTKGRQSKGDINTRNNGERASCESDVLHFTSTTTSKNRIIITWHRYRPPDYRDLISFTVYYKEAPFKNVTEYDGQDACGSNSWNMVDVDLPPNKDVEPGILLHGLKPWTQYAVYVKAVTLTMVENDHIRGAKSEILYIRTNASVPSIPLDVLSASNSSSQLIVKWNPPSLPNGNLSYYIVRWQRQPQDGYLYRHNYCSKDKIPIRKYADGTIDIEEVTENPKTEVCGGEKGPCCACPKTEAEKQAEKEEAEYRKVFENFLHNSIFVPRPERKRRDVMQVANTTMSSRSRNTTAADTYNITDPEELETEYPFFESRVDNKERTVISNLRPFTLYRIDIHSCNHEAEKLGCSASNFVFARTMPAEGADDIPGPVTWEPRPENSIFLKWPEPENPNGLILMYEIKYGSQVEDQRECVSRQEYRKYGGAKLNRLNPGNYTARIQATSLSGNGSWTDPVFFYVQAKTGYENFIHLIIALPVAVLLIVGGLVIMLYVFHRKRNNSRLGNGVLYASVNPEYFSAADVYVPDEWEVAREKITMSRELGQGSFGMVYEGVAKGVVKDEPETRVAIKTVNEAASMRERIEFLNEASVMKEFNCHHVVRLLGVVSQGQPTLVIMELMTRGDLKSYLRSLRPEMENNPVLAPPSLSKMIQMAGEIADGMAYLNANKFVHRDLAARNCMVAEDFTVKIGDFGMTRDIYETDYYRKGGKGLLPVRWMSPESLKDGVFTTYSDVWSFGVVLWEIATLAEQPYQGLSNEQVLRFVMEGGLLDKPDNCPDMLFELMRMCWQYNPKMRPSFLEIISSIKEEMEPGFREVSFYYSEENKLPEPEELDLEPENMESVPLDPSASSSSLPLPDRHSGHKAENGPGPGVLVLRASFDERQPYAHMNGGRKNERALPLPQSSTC
Description: as §1

TNNI3K = target: T19, TNNI3K (Homo sapiens, UniProt Q59H18)
T19 construct: purchased Eurofins/DiscoverX KINOMEscan scanMAX
Description: as §1

ACVR1 = target: T20, ACVR1 (Homo sapiens, UniProt Q04771)
T20 construct: purchased Eurofins/DiscoverX KINOMEscan scanMAX
Description: as §1

PKN1 = target: T21, PKN1 (Homo sapiens, UniProt Q16512)
T21 construct: purchased Eurofins/DiscoverX KINOMEscan scanMAX
Description: as §1

PKAC-beta = target: T22, PKAC-beta (Homo sapiens, UniProt P22694)
T22 construct: purchased Eurofins/DiscoverX KINOMEscan scanMAX
Description: as §1

OSR1 = target: T23, OSR1 (Homo sapiens, UniProt O95747)
T23 construct: purchased Eurofins/DiscoverX KINOMEscan scanMAX
Description: as §1

CDK4 = target: T24, CDK4 (Homo sapiens, UniProt P11802)
T24 construct: purchased Eurofins/DiscoverX KINOMEscan scanMAX
Description: as §1

CSK = target: T25, CSK (Homo sapiens, UniProt P41240)
T25 construct: purchased Eurofins/DiscoverX KINOMEscan scanMAX
Description: as §1

MYO3A = target: T26, MYO3A (Homo sapiens, UniProt Q8NEV4)
T26 construct: purchased Eurofins/DiscoverX KINOMEscan scanMAX
Description: as §1

CDK2 = target: T27, CDK2 (Homo sapiens, UniProt P24941)
T27 construct: purchased Eurofins/DiscoverX KINOMEscan scanMAX
Description: as §1

BUB1 = target: T28, BUB1 (Homo sapiens, UniProt O43683)
T28 construct: purchased Eurofins/DiscoverX KINOMEscan scanMAX
Description: as §1

[3] = target: T29, ABL1(H396P)-nonphosphorylated (Homo sapiens, UniProt P00519, H396P)
T29 construct: purchased Eurofins/DiscoverX KINOMEscan scanMAX
Description: as §1

WNK3 = target: T30, WNK3 (Homo sapiens, UniProt Q9BYP7)
T30 construct: DNA tag (qPCR barcode); purchased Eurofins/DiscoverX KINOMEscan scanMAX
T30 sequence (Q9BYP7 whole entry): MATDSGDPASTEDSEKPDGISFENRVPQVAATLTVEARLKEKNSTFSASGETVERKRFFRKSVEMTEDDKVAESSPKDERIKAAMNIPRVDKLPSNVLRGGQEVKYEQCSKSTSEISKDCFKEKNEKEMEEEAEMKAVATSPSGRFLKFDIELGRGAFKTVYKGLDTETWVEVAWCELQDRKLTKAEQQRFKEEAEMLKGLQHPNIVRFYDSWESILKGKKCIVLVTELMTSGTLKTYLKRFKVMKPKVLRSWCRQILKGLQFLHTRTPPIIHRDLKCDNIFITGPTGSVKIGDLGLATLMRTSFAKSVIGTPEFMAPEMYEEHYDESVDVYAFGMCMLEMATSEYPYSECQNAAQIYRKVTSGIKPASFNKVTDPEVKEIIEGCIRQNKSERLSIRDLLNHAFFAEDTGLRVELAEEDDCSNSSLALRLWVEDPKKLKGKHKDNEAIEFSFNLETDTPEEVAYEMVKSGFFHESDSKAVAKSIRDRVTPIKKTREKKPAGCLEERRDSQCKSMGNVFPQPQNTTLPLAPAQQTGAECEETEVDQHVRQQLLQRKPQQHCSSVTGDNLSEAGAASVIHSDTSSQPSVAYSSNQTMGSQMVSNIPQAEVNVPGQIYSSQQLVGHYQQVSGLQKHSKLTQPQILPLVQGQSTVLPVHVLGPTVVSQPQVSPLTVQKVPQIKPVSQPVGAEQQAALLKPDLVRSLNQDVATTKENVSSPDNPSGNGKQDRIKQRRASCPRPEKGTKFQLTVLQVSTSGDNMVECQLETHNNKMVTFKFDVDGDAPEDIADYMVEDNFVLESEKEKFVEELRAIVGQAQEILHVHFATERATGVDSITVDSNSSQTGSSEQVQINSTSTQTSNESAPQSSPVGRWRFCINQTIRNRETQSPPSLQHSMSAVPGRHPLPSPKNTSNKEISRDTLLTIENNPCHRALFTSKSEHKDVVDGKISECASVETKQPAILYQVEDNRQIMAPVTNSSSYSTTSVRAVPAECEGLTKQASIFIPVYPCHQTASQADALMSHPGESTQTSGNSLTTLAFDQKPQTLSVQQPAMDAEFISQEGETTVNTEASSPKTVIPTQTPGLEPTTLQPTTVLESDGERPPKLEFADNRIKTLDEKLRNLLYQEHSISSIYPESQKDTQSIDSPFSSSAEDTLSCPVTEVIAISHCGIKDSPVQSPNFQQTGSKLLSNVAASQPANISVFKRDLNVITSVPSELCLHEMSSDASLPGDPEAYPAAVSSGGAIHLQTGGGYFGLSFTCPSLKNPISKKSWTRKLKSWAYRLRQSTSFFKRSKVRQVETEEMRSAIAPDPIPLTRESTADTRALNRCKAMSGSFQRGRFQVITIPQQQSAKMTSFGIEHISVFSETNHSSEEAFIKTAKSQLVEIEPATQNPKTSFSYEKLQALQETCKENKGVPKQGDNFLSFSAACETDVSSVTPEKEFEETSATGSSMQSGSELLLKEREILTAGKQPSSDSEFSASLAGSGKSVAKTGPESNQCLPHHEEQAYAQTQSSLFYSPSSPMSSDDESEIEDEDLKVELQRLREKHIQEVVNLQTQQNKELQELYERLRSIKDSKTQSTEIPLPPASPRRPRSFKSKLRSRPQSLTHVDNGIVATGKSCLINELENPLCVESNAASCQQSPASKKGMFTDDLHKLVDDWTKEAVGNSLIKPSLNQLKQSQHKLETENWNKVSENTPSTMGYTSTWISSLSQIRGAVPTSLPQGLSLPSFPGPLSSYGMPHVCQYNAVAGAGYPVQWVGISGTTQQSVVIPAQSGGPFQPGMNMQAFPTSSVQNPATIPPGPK
Description: as §1

SRMS = target: T31, SRMS (Homo sapiens, UniProt Q9H3Y6)
T31 construct: purchased Eurofins/DiscoverX KINOMEscan scanMAX
Description: as §1

PRKD1 = target: T32, PRKD1 (Homo sapiens, UniProt Q15139)
T32 construct: purchased Eurofins/DiscoverX KINOMEscan scanMAX
Description: as §1

QSK = target: T33, QSK (Homo sapiens, UniProt Q9Y2K2)
T33 construct: purchased Eurofins/DiscoverX KINOMEscan scanMAX
Description: as §1

PIK3CA(E545A) = target: T34, PIK3CA(E545A) (Homo sapiens, UniProt P42336, E545A)
T34 construct: purchased Eurofins/DiscoverX KINOMEscan scanMAX
Description: as §1

ASK1 = target: T35, ASK1 (Homo sapiens, UniProt Q99683)
T35 construct: purchased Eurofins/DiscoverX KINOMEscan scanMAX
Description: as §1

FLT3(N841I) = target: T36, FLT3(N841I) (Homo sapiens, UniProt P36888, N841I)
T36 construct: purchased Eurofins/DiscoverX KINOMEscan scanMAX
Description: as §1

KIT(D816H) = target: T37, KIT(D816H) (Homo sapiens, UniProt P10721, D816H)
T37 construct: purchased Eurofins/DiscoverX KINOMEscan scanMAX
T37 sequence (P10721 26-976 D816H): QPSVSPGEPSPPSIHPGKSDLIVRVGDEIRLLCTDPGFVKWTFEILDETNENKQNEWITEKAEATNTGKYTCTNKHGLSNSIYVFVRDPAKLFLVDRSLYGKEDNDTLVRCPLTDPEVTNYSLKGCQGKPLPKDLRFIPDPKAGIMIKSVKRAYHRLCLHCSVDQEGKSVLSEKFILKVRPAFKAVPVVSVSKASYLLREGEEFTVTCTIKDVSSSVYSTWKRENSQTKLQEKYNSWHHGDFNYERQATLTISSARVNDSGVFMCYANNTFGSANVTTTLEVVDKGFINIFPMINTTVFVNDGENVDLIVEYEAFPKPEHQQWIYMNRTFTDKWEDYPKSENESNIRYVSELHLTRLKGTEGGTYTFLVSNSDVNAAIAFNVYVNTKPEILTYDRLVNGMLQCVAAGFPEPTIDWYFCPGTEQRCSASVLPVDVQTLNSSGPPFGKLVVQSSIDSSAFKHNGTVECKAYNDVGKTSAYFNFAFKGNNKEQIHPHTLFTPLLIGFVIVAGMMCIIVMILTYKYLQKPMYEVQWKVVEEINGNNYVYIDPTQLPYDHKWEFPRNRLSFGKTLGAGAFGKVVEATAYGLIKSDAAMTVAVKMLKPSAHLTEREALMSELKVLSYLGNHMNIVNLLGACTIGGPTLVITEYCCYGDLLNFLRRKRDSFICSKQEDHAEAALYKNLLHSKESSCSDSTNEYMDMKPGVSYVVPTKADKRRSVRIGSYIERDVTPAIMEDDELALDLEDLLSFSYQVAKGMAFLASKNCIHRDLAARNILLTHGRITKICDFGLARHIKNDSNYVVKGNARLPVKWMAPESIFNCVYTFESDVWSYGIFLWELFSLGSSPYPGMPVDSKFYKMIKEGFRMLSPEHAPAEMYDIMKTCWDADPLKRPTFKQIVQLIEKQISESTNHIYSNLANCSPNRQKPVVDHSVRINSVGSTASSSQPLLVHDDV
Description: as §1

RIOK3 = target: T38, RIOK3 (Homo sapiens, UniProt O14730)
T38 construct: purchased Eurofins/DiscoverX KINOMEscan scanMAX
Description: as §1

CAMK1G = target: T39, CAMK1G (Homo sapiens, UniProt Q96NX5)
T39 construct: purchased Eurofins/DiscoverX KINOMEscan scanMAX
Description: as §1

[4] = target: T40, JAK1(JH2domain-pseudokinase) (Homo sapiens, UniProt P23458)
T40 construct: JAK1(JH2domain-pseudokinase); purchased Eurofins/DiscoverX KINOMEscan scanMAX
Description: as §1

HUNK = target: T41, HUNK (Homo sapiens, UniProt P57058)
T41 construct: purchased Eurofins/DiscoverX KINOMEscan scanMAX
Description: as §1

In the case of `CN1CCN(C2CCC(n3cc(-c4ccc(Oc5ccccc5)cc4)c4c(N)ncnc43)CC2)CC1` (centres unmarked) [A-419259], the “% Control” value (SBK1) was 96%, the “% Control” value (EPHA8) was 72% and the “% Control” value (WNK2) was 67%. For the same compound, the “% Control” value (CDK4-cyclinD3) was 81%, the “% Control” value (MAPKAPK5) was 100% and the “% Control” value (MLK1) was 88%. For the same compound, the “% Control” value (TBK1) was 100%, the “% Control” value (PIK3CD) was 100% and the “% Control” value (IRAK3) was 89%. For the same compound, the “% Control” value (ACVR2A) was 100%, the “% Control” value [1] was 0.5% and the “% Control” value [2] was 95%. The “% Control” value (PHKG2) was 100%, the “% Control” value (ARK5) was 90% and the “% Control” value (BMPR2) was 97%. The “% Control” value (DYRK1A) was 99%, the “% Control” value (CAMK2G) was 100% and the “% Control” value (IGF1R) was 80%. For the same compound, the “% Control” value (TNNI3K) was 91%, the “% Control” value (ACVR1) was 100% and the “% Control” value (PKN1) was 88%. The “% Control” value (PKAC-beta) was 100%, the “% Control” value (OSR1) was 100% and the “% Control” value (CDK4) was 91%. The “% Control” value (CSK) was 2.1%, the “% Control” value (MYO3A) was 2.7% and the “% Control” value (CDK2) was 70%. The “% Control” value (BUB1) was 100%, the “% Control” value [3] was 0.2% and the “% Control” value (WNK3) was 46%. For the same compound, the “% Control” value (SRMS) was 0%, the “% Control” value (PRKD1) was 63% and the “% Control” value (QSK) was 93%. For the same compound, the “% Control” value (PIK3CA(E545A)) was 100%, the “% Control” value (ASK1) was 100% and the “% Control” value (FLT3(N841I)) was 5.3%. For the same compound, the “% Control” value (KIT(D816H)) was 40%, the “% Control” value (RIOK3) was 64% and the “% Control” value (CAMK1G) was 100%. The “% Control” value [4] was 100% and the “% Control” value (HUNK) was 100%.
